Results: BindingDB's records for doi:10.1016/j.bmcl.2004.07.023 (North Dakota State University, 2004)

Molecular target: T1, Interstitial collagenase (Homo sapiens, UniProt P03956)
T1 sequence (P03956 whole entry): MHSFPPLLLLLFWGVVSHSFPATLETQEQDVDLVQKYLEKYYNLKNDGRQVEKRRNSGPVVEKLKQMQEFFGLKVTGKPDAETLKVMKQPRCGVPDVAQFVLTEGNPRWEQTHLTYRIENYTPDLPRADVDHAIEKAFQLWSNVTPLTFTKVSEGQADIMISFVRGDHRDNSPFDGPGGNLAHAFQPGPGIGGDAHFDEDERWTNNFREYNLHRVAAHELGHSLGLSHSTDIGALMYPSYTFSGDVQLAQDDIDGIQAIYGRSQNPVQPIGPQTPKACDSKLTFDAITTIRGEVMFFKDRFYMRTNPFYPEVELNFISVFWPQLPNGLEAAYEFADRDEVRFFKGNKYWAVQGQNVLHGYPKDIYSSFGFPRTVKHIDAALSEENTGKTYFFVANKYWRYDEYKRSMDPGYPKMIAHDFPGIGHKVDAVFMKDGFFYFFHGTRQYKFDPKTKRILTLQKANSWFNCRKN
Experiment: Inhibitory activity against matrix metalloprotease-1; No activity upto solubility limit

Ki: > 30 µM
Compound: C=C[C@@H]1OC(c2ccc(Br)cc2)=N[C@H]1Sc1ccccc1 [(4S,5S)-2-(4-Bromo-phenyl)-4-phenylsulfanyl-5-vinyl-4,5-dihydro-oxazole]
